Results taken from patent EP4201923A1, “5-SUBSTITUTED 2,3-DIHYDROPYRIDIN-4-ONES AND PROCESS FOR PREPARING THE SAME” (Karl-Franzens-Universität Graz, priority 2021, dated 2023).

Key:
[1] = tested on: human CCRF-CEM leukemia cells; experiment: Anticancer activity by cytotoxicity to human CCRF-CEM leukemia cells (XTT colorimetric cell viability); type: cell-based; settings: solvent control DMSO 0.1 %
Procedure: Assays were performed using an established cancer cell line, human CCRF-CEM leukemia cells and cell viability determined as described above with a colorimetric assay using the tetrazolium salt XTT as reported (Moshin N et al. Monatshefte für Chemie 2018, 149, 801-812). The anticancer drug vinblastine, the solvent DMSO and the untreated cells are used as control. The compounds of examples 1 to 8 were investigated in concentrations of 5 µM and 50 µM. Table 2: Results for anticancer activity against CCRF-CEM cells expressed as cell metabolic activity in % of the solvent control The results are expressed as cell metabolic activity in % of the solvent control. […] Thus, the compounds of the present invention show a substantial anticancer activity.

Pseudomonas fluorescens = experiment: Antimicrobial activity, drop plate method assay; type: cell-based; parameters: key: high activity (++); medium activity (+); low activity (±); no activity(-); settings: 10 µl of 1 mg/ml in DMSO dropped on seeded agar plate; read after approximately 10-16 h
Procedure: (§1) A drop plate method assay (Alajlani M et al. Chromatographia 2016, 79, 1527-1532.) with modification was performed to detect the antimicrobial activity against several bacteria strains. Investigated compounds (compounds of examples 1-7, 9) were dissolved in DMSO to a concentration of 1 mg/ml. Using sterile micropipette 10 µl of each compound was directly but gently dropped over seeded agar plate with test organism. The liquid was allowed to diffuse before the plate was inverted and incubated. The growth conditions for every strain were considered. The results were noted when a lawn of the indicator organism appeared on the plate (approximately 10-16 h). The magnitude of activity was noted as high activity (++), medium activity (+), low activity (±) and no activity(-). Not determined data are indicated with n.d. Table 3: Antimicrobial activities of compounds_were detected over the test organisms

Micrococcus luteus = experiment: Antimicrobial activity, drop plate method assay; type: cell-based; parameters: key: high activity (++); medium activity (+); low activity (±); no activity(-); settings: 10 µl of 1 mg/ml in DMSO dropped on seeded agar plate; read after approximately 10-16 h
Procedure: as §1

Serratia sp = experiment: Antimicrobial activity, drop plate method assay; type: cell-based; parameters: key: high activity (++); medium activity (+); low activity (±); no activity(-); settings: 10 µl of 1 mg/ml in DMSO dropped on seeded agar plate; read after approximately 10-16 h
Procedure: as §1

Escherichia coli = experiment: Antimicrobial activity, drop plate method assay; type: cell-based; parameters: key: high activity (++); medium activity (+); low activity (±); no activity(-); settings: 10 µl of 1 mg/ml in DMSO dropped on seeded agar plate; read after approximately 10-16 h
Procedure: as §1

MRC-5 cells = experiment: Cytotoxicity assay using MRC-5 cells (XTT colorimetric cell viability); type: cell-based, human; settings: solvent control DMSO 0.1 %
From the text: The results are expressed as cell metabolic activity in % of the solvent control.

Compound	cell metabolic activity in % of the solvent control, mean ([1]; compound 5 µM) [%]	cell metabolic activity in % of the solvent control, mean ([1]; compound 50 µM) [%]	Antimicrobial activity, Pseudomonas fluorescens (Pseudomonas fluorescens)	Antimicrobial activity, Micrococcus luteus (Micrococcus luteus)	Antimicrobial activity, Serratia sp (Serratia sp)	Antimicrobial activity, Escherichia coli (Escherichia coli)	cell metabolic activity in % of the solvent control, mean (MRC-5 cells; compound 5 µM) [%]	cell metabolic activity in % of the solvent control, mean (MRC-5 cells; compound 50 µM) [%]	cell metabolic activity in % of the solvent control, mean ([1]; control substance at 100 nM) [%]	cell metabolic activity in % of the solvent control, mean (MRC-5 cells; control substance at 100 nM) [%]
CC1(C)CC(=O)C(C(c2ccccc2)N2CCOCC2)=CN1 (racemic) [Example 3, (RS)-2,3-Dihydro-2,2-dimethyl-5-(phenyl(morpholin-1-yl)methyl)pyridin-4(1H)-one]	93.13	10.98	+	++	±	+	110.88	84.05		
CC[C@]1(O)C[C@@H]2CN(CCc3c([nH]c4ccccc34)[C@@](C(=O)OC)(c3cc4c(cc3OC)N(C)[C@H]3[C@@](O)(C(=O)OC)[C@H](OC(C)=O)[C@]5(CC)C=CCN6CC[C@]43[C@@H]65)C2)C1 [Vinblastine, vinblastine, reference compound]									9.06	51.88
CC1(C)CC(=O)C(C(c2ccccc2)N2CCCCC2)=CN1 (racemic) [Example 2, (RS)-2,3-Dihydro-2,2-dimethyl-5-(phenyl(piperidin-1-yl)methyl)pyridin-4(1H)-one]	88.18	8.75	+	+	±	+	108.05	82.27		
CC1(C)CC(=O)C(C(c2ccc(F)cc2)N2CCOCC2)=CN1 (racemic) [Example 6, (RS)-2,3-Dihydro-2,2-dimethyl-5-((4-fluorphenyl)(morpholin-1-yl)methyl)pyridin-4 (1H) -one]	87.71	8.78	++		±	+	105.36	89.35		
Cc1ccc(C(C2=CNC(C)(C)CC2=O)N2CCCC2)cc1 (racemic) [Example 7, (RS)-2,3-Dihydro-2,2-dimethyl-5-((4-methylphenyl)-(pyrrolidin-1-yl)methyl)pyridin-4(1H)-one]	87.47	8.52	++		±	+	100.07	88.41		
CC1(C)CC(=O)C(C(c2ccncc2)N2CCCC2)=CN1 (racemic) [Example 9, (RS)-2,3-Dihydro-2,2-dimethyl-5-((4-pyridyl)-(pyrrolidin-1-yl)methyl)pyridin-4(1H)-one]				+	±	+				
CC1(C)CC(=O)C(C(c2ccccc2C(F)(F)F)N2CCCC2)=CN1 (racemic) [Example 8, (RS)-2,3-Dihydro-2,2-dimethyl-5-((pyrrolidin-1-yl)-(2-trifluormethylphenyl)methyl)pyridin-4(1H)-one]	52.06	8.46					103.65	67.08		
CC1(C)CC(=O)C(C(c2ccc(F)cc2)N2CCCC2)=CN1 (racemic) [Example 4, (RS)-2,3-Dihydro-2,2-dimethyl-5-((4-fluorphenyl)-(pyrrolidin-1-yl)methyl)pyridin-4(1H)-one]	88.03	8.82	+	+	+	++	105.92	90.99		
CC(C)c1ccc(C(C2=CNC(C)(C)CC2=O)N2CCCC2)cc1 (racemic) [Example 5, (RS)-2,3-Dihydro-2,2-dimethyl-5-((4-isopropylphenyl)-(pyrrolidin-1-yl)methyl)pyridin-4(1H)-one]	75.36	8.72	++		±	+	104.11	42.19		
CC1(C)CC(=O)C(C(c2ccccc2)N2CCCC2)=CN1 (racemic) [Example 1, (RS)-2,3-Dihydro-2,2-dimethyl-5-(phenyl(pyrrolidin-1-yl)methyl)pyridin-4(1H)-one]	88.69	9.02	+	+	±	+	107.18	87.86		
